Patent publication US10550111B2, “Pyrimidine urea compound containing isoxazolines and use thereof” (SHENYANG SINOCHEM AGROCHEMICALS R&D CO., LTD, priority 2014, dated 2020)

How the values were obtained:
Assay type in all cases: in vivo
Zinnia elegans Jacq. = assay: Bioassay of herbicidal activity in greenhouse (further screening)
Description: (§1) Determination of herbicidal activity of compounds of the present invention against weeds was carried out by the following procedures:
(§2) Seeds of monocotyledonous and dicotyledonous weeds were sown in nutrition soil in paper pot (7 cm diameter), covered with soil in 1 cm and grown in the greenhouse under good growth conditions (temperature, atmospheric humidity, water supply). The compounds of the present invention as emulsifiable concentrate, were applied in pre-emergence and post-emergence treatment by track sprayer (Engineer Research Ltd., pressure 1.95 kg/cm^2, volume 500 L/hm^2, track speed 1.48 km/h). Pre-emergence treatment was conducted after seeding 24 hours and post-emergence treatment was done when the respective weeds reached predetermined leaf stage (grass weed 2- to 3-leaf stage, broad-leaf weed 2- to 4-leaf stage), the state of growth of the respective weeds were visually observed to determine the growth inhibition rate (%) in accordance with the following evaluation standard.
(§3) Growth inhibition rate (%): 0=no discernible action: 100=all weeds dead or not emerged.

[1] = system: Setaria glauca (L.) Beauv.; assay: as above
Description: as §1, §2, §3

[2] = system: Abutilon theophrasti Medic.; assay: as above
Description: as §1, §2, §3

[3] = system: Echinochloa crus-galli (L.) Beauv.; assay: as above
Description: as §1, §2, §3

[4] = system: broad-leaf weeds and grass weeds; assay: General screening of herbicidal activity in greenhouse; settings: 1000 g a.i./hm^2;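 also: 0 means no visible effect and 100 means all weeds dead or not emerged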
Description: as §1, §2, §3

CC(C)COC(=O)C1(C)CC(c2cc(-n3c(=O)cc(C(F)(F)F)n(C)c3=O)c(F)cc2Cl)=NO1 (stereo not shown) [Compound 397]
Growth inhibition rate, Post-emergence treatment, Zinnia elegans Jacq. (Zinnia elegans Jacq.; dose 7.5 g a.i./hm^2): 60%
Growth inhibition rate, Post-emergence treatment, Zinnia elegans Jacq. (Zinnia elegans Jacq.; dose 15 g a.i./hm^2): 85%
Growth inhibition rate, Post-emergence treatment, Zinnia elegans Jacq. (Zinnia elegans Jacq.; dose 30.0 g a.i./hm^2): 95%
Growth inhibition rate, Post-emergence treatment, Zinnia elegans Jacq. (Zinnia elegans Jacq.; dose 60.0 g a.i./hm^2): 100%
Growth inhibition rate, Post-emergence treatment, Zinnia elegans Jacq. (Zinnia elegans Jacq.; dose 120.0 g a.i./hm^2): 100%
Growth inhibition rate, Post-emergence treatment, Setaria glauca (L.) Beauv. ([1]; dose 7.5 g a.i./hm^2): 55%
Growth inhibition rate, Post-emergence treatment, Setaria glauca (L.) Beauv. ([1]; dose 15 g a.i./hm^2): 75%
Growth inhibition rate, Post-emergence treatment, Setaria glauca (L.) Beauv. ([1]; dose 30.0 g a.i./hm^2): 85%
Growth inhibition rate, Post-emergence treatment, Setaria glauca (L.) Beauv. ([1]; dose 60.0 g a.i./hm^2): 100%
Growth inhibition rate, Post-emergence treatment, Setaria glauca (L.) Beauv. ([1]; dose 120.0 g a.i./hm^2): 100%
Growth inhibition rate, Post-emergence treatment, Abutilon theophrasti Medic. ([2]; dose 7.5 g a.i./hm^2): 98%
Growth inhibition rate, Post-emergence treatment, Abutilon theophrasti Medic. ([2]; dose 15 g a.i./hm^2): 100%
Growth inhibition rate, Post-emergence treatment, Abutilon theophrasti Medic. ([2]; dose 30.0 g a.i./hm^2): 100%
Growth inhibition rate, Post-emergence treatment, Abutilon theophrasti Medic. ([2]; dose 60.0 g a.i./hm^2): 100%
Growth inhibition rate, Post-emergence treatment, Abutilon theophrasti Medic. ([2]; dose 120.0 g a.i./hm^2): 100%
Growth inhibition rate, Post-emergence treatment, Echinochloa crus-galli (L.) Beauv. ([3]; dose 7.5 g a.i./hm^2): 45%
Growth inhibition rate, Post-emergence treatment, Echinochloa crus-galli (L.) Beauv. ([3]; dose 15 g a.i./hm^2): 65%
Growth inhibition rate, Post-emergence treatment, Echinochloa crus-galli (L.) Beauv. ([3]; dose 30.0 g a.i./hm^2): 100%
Growth inhibition rate, Post-emergence treatment, Echinochloa crus-galli (L.) Beauv. ([3]; dose 60.0 g a.i./hm^2): 100%
Growth inhibition rate, Post-emergence treatment, Echinochloa crus-galli (L.) Beauv. ([3]; dose 120.0 g a.i./hm^2): 100%
pre-emergence and post-emergence herbicidal activity against broad-leaf weeds and grass weeds [4]: good

Cn1c(C(F)(F)F)cc(=O)n(-c2cc(C3=NOC(C)(C(=O)OCC(F)(F)F)C3)c(Cl)cc2F)c1=O (stereo not shown) [Compound 396]
Growth inhibition rate, Post-emergence treatment, Zinnia elegans Jacq. (Zinnia elegans Jacq.; dose 7.5 g a.i./hm^2): 30%
Growth inhibition rate, Post-emergence treatment, Zinnia elegans Jacq. (Zinnia elegans Jacq.; dose 15 g a.i./hm^2): 60%
Growth inhibition rate, Post-emergence treatment, Zinnia elegans Jacq. (Zinnia elegans Jacq.; dose 30.0 g a.i./hm^2): 75%
Growth inhibition rate, Post-emergence treatment, Zinnia elegans Jacq. (Zinnia elegans Jacq.; dose 60.0 g a.i./hm^2): 100%
Growth inhibition rate, Post-emergence treatment, Zinnia elegans Jacq. (Zinnia elegans Jacq.; dose 120.0 g a.i./hm^2): 100%
Growth inhibition rate, Post-emergence treatment, Setaria glauca (L.) Beauv. ([1]; dose 7.5 g a.i./hm^2): 25%
Growth inhibition rate, Post-emergence treatment, Setaria glauca (L.) Beauv. ([1]; dose 15 g a.i./hm^2): 55%
Growth inhibition rate, Post-emergence treatment, Setaria glauca (L.) Beauv. ([1]; dose 30.0 g a.i./hm^2): 85%
Growth inhibition rate, Post-emergence treatment, Setaria glauca (L.) Beauv. ([1]; dose 60.0 g a.i./hm^2): 98%
Growth inhibition rate, Post-emergence treatment, Setaria glauca (L.) Beauv. ([1]; dose 120.0 g a.i./hm^2): 100%
Growth inhibition rate, Post-emergence treatment, Abutilon theophrasti Medic. ([2]; dose 7.5 g a.i./hm^2): 98%
Growth inhibition rate, Post-emergence treatment, Abutilon theophrasti Medic. ([2]; dose 15 g a.i./hm^2): 100%
Growth inhibition rate, Post-emergence treatment, Abutilon theophrasti Medic. ([2]; dose 30.0 g a.i./hm^2): 100%
Growth inhibition rate, Post-emergence treatment, Abutilon theophrasti Medic. ([2]; dose 60.0 g a.i./hm^2): 100%
Growth inhibition rate, Post-emergence treatment, Abutilon theophrasti Medic. ([2]; dose 120.0 g a.i./hm^2): 100%
Growth inhibition rate, Post-emergence treatment, Echinochloa crus-galli (L.) Beauv. ([3]; dose 7.5 g a.i./hm^2): 20%
Growth inhibition rate, Post-emergence treatment, Echinochloa crus-galli (L.) Beauv. ([3]; dose 15 g a.i./hm^2): 55%
Growth inhibition rate, Post-emergence treatment, Echinochloa crus-galli (L.) Beauv. ([3]; dose 30.0 g a.i./hm^2): 95%
Growth inhibition rate, Post-emergence treatment, Echinochloa crus-galli (L.) Beauv. ([3]; dose 60.0 g a.i./hm^2): 100%
Growth inhibition rate, Post-emergence treatment, Echinochloa crus-galli (L.) Beauv. ([3]; dose 120.0 g a.i./hm^2): 100%
pre-emergence and post-emergence herbicidal activity against broad-leaf weeds and grass weeds [4]: good

Cn1c(C(F)(F)F)cc(=O)n(-c2cc(C3=NOC(C)(C(=O)O)C3)c(Cl)cc2F)c1=O (stereo not shown) [Compound 4]
Growth inhibition rate, Post-emergence treatment, Zinnia elegans Jacq. (Zinnia elegans Jacq.; dose 37.5 g a.i./hm^2): 95%
Growth inhibition rate, Post-emergence treatment, Zinnia elegans Jacq. (Zinnia elegans Jacq.; dose 150 g a.i./hm^2): 100%
Growth inhibition rate, Post-emergence treatment, Zinnia elegans Jacq. (Zinnia elegans Jacq.; dose 600 g a.i./hm^2): 100%
Growth inhibition rate, Pre-emergence treatment, Zinnia elegans Jacq. (Zinnia elegans Jacq.; dose 37.5 g a.i./hm^2): 0%
Growth inhibition rate, Pre-emergence treatment, Zinnia elegans Jacq. (Zinnia elegans Jacq.; dose 150 g a.i./hm^2): 5%
Growth inhibition rate, Pre-emergence treatment, Zinnia elegans Jacq. (Zinnia elegans Jacq.; dose 600 g a.i./hm^2): 20%
Growth inhibition rate, Post-emergence treatment, Setaria glauca (L.) Beauv. ([1]; dose 37.5 g a.i./hm^2): 20%
Growth inhibition rate, Post-emergence treatment, Setaria glauca (L.) Beauv. ([1]; dose 150 g a.i./hm^2): 70%
Growth inhibition rate, Post-emergence treatment, Setaria glauca (L.) Beauv. ([1]; dose 600 g a.i./hm^2): 100%
Growth inhibition rate, Pre-emergence treatment, Setaria glauca (L.) Beauv. ([1]; dose 37.5 g a.i./hm^2): 0%
Growth inhibition rate, Pre-emergence treatment, Setaria glauca (L.) Beauv. ([1]; dose 150 g a.i./hm^2): 5%
Growth inhibition rate, Pre-emergence treatment, Setaria glauca (L.) Beauv. ([1]; dose 600 g a.i./hm^2): 30%
Growth inhibition rate, Post-emergence treatment, Abutilon theophrasti Medic. ([2]; dose 37.5 g a.i./hm^2): 50%
Growth inhibition rate, Post-emergence treatment, Abutilon theophrasti Medic. ([2]; dose 150 g a.i./hm^2): 98%
Growth inhibition rate, Post-emergence treatment, Abutilon theophrasti Medic. ([2]; dose 600 g a.i./hm^2): 98%
Growth inhibition rate, Pre-emergence treatment, Abutilon theophrasti Medic. ([2]; dose 37.5 g a.i./hm^2): 10%
Growth inhibition rate, Pre-emergence treatment, Abutilon theophrasti Medic. ([2]; dose 150 g a.i./hm^2): 15%
Growth inhibition rate, Pre-emergence treatment, Abutilon theophrasti Medic. ([2]; dose 600 g a.i./hm^2): 40%
Growth inhibition rate, Post-emergence treatment, Echinochloa crus-galli (L.) Beauv. ([3]; dose 37.5 g a.i./hm^2): 15%
Growth inhibition rate, Post-emergence treatment, Echinochloa crus-galli (L.) Beauv. ([3]; dose 150 g a.i./hm^2): 25%
Growth inhibition rate, Post-emergence treatment, Echinochloa crus-galli (L.) Beauv. ([3]; dose 600 g a.i./hm^2): 85%
Growth inhibition rate, Pre-emergence treatment, Echinochloa crus-galli (L.) Beauv. ([3]; dose 37.5 g a.i./hm^2): 0%
Growth inhibition rate, Pre-emergence treatment, Echinochloa crus-galli (L.) Beauv. ([3]; dose 150 g a.i./hm^2): 0%
Growth inhibition rate, Pre-emergence treatment, Echinochloa crus-galli (L.) Beauv. ([3]; dose 600 g a.i./hm^2): 10%
pre-emergence and post-emergence herbicidal activity against broad-leaf weeds and grass weeds [4]: good
